Assay results from patent US11969425B2, “Inhibitor of indoleamine-2,3-dioxygenase (IDO)” (InventisBio LLC, priority 2016, dated 2024).

Legend:
[1] = Human hepatocyte clearance study; type: in vitro ADME; conditions: pooled cryopreserved human hepatocytes (suspension); for CLint scaled at 1 µM: human, scaled up from in vitro t1/2, scaling factor 2544.3, read-out: Human Scale-up Clint; for hepatocyte CLint at 1 µM / half-life at 1 µM: pooled human hepatocytes; for hepatocyte CLint at 1 µM: read-out: Human In vitro Clint (μL/min/10^6 cells); for half-life at 1 µM: read-out: Human In vitro T1/2
Procedure: (§1) The in vitro human hepatocyte clearance of compounds described here was studied using pooled human hepatocytes purchased from BioreclamationIVT (Westbury, NY, Cat #X008001, Lot #TQJ). The assay was conducted according to manufacture's instruction. Briefly, 10 mM stock solutions of test compounds and positive control (Verapamil) were prepared in 100% DMSO. Thawing media (50 mL) used in the study consists of: 31 mLWilliams E medium (GIBCO Cat #12551-032); 15 mL isotonic percoll (GE Healthcare Cat #17-0891-09); 500 uL 100XGlutaMax (GIBCO Cat #35050); 750 uL HEPES (GIBCO Cat #15630-080); 2.5 mL FBS (Corning Cat #35-076*CVR); 50 uL human insulin (GIBCO Cat #12585-014) and 5 uL dexamethasone (NICPBP). Incubation media is made of Williams E medium supplemented with 1xGlutaMax. Both thawing medium and incubation medium (serum-free) were placed in a 37° C. water bath for at least 15 minutes prior to use. Compound stock solutions were diluted to 100 μM by combining 198 μL of 50% acetonitrile/50% water and 2 μL of 10 mM stock solution. Verapamil was use as positive control in the assay. Vials of cryopreserved hepatocytes were removed from storage and thawed in a 37° C. water bath with gentle shaking. Contents of the vial were poured into the 50 mL thawing medium conical tube. Vials were centrifuged at 100 g for 10 minutes at room temperature. Thawing medium was aspirated and hepatocytes were re-suspended with serum-free incubation medium to yield ˜1.5×10^6 cells/mL. Hepatocyte viability and density were counted using a Trypan Blue exclusion, and then cells were diluted with serum-free incubation medium to a working cell density of 0.5×10^6 viable cells/mL. Then, a portion of the hepatocytes at 0.5×10^6 viable cells/mL was boiled for 5 minutes prior to adding to the plate as negative control to eliminate the enzymatic activity so that little or no substrate turnover should be observed. The boiled hepatocytes were used to prepare negative samples. Aliquots of 198 μL hepatocytes were dispensed into each well of a 96-well non-coated plate. The plate was placed in the incubator on an orbital shaker at 500 rpm for approximately 10 minutes. Aliquots of 2 μL of the 100 μM test compound or positive control were added into respective wells of the non-coated 96-well plate to start the reaction. This assay was performed in duplicate. The plate was incubated in the incubator on an orbital shaker at 500 rpm for the designated time points. Twenty-five microliter of contents were transferred and mixed with 6 volumes (150 μL) of cold acetonitrile with IS (200 nM imipramine, 200 nM labetalol and 200 nM diclofenac) to terminate the reaction at time points of 0, 15, 30, 60, 90 and 120 minutes. Samples were centrifuged at 3,220 g for 25 minutes and aliquots of 150 μL of the supernatants were used for LC-MS/MS analysis. For data analysis, all calculations were carried out using Microsoft Excel. Peak areas were determined from extracted ion chromatograms. The in vitro half-life (t1/2) of parent compound was determined by regression analysis of the percent parent disappearance vs. time curve. The in vitro half-life (in vitro t1/2) was determined from the slope value: in vitro t1/2=0.693/k. […] Scaling factors for in vivo intrinsic clearance prediction using human hepatocytes are listed as: liver weight (g liver/kg body weight): 25.7; hepatocyte concentration (10^6 cells/g liver): 99; scaling factor: 2544.3.

pooled human hepatocytes = experiment: Human hepatocyte clearance study; type: in vitro ADME; conditions: pooled human hepatocytes, 120 min
Procedure: as §1

[2] = system: kynurenine production in HeLa cells; experiment: Inhibition of kynurenine production in HeLa cells; type: cell-based, human; conditions: Homo sapiens, HeLa, 48 h, HeLa cells, human IFN-γ 50 ng/mL, kynurenine read at 480 nm, read-out: IC50
Procedure: The effect of compounds described herein on the inhibition of kynurenine production in HeLa cells (derived from human cervical cancer) was determined. HeLa cells were seeded into a 96-well culture plate at a density of 5×10^3 per well in RPMI1640/phenol red free media (from GIBCO) with 2 mM L-glutamine and 10% fetal bovine serum (FBS, from GIBCO) and grown overnight in a 37° C. incubator with 5% CO2. Twenty-four hours later, human IFN-γ (from GIBCO) (final concentration 50 ng/mL) and test compound solutions (serially diluted to different wells) were added to each well with a final volume of 200 uL per well. Forty-eight hours after incubation with compounds, 140 uL supernatant was taken from each well and was transferred to a new 96-well plate. Ten microliters of 6.1 N trichloroacetic acid were added into each well, mixed and incubated at 50° C. for 30 minutes. The reaction mixture was then centrifuged for 10 minutes at 2500 rpm and 100 uL of the supernatant per well was transferred to another 96 well plate and mixed with 100 uL of 2% (w/v) p-dimethylaminobenzaldehyde in acetic acid. The yellow color derived from kynurenine was measured at 480 nm using a SPECTRAmax i3 reader. Each compound concentration was done in triplicates and compound IC50 value was calculated using nonlinear regression using Graphpad Prism 5.0.
The inhibitory activity of representative compounds described herein, compared with another IDO inhibitor, such as INCB-24360, Controls 1 and 2 are shown in Table 2.

[3] = system: T cells and HeLa cells co-culture; experiment: T cells and HeLa cells co-culture assay (IFN-gamma production); type: cell-based, human; conditions: Homo sapiens; CD3 T cells + HeLa cells, 72 hr, FIG. 4; read-out: EC50, production of IFN-gamma in the T cells and HeLa cells co-culture media
Procedure: HeLa cells were seeded into 96-well plate (5000 cells per well in 100 μL of cell growth media DMEM with 10% FBS and 1% pen/strep) and incubated at 37° C. with 5% CO2. After overnight incubation, 200 μL of INF-gamma (50 ng/ml in growth media) was added to the plate and returned to incubator for another 48 hr. SepMater™-50 centrifuge tube was used to isolate PBMC from human donor according to manufacture's instruction (Stemcell). The CD3 T cell was then isolated from the PBMC using EasySep Human T cell isolation kit (Stemcell). Wash the 96-well plat twice with 200 μL of co-culture media (RPMI-1640+10% FBS+1% Pen/strep). Adjust the CD3 T cells density to 5×10^5 cells/ml with high dose anti-CD3/CD28 beads and co-culture medium (RPMI-1640+10% FBS+1% Pen/strep) and seed 200 μL/well into 96-well plate. Compound at different concentration was added to each well and the plate was incubated for a further 72 hr. Level of INF-gamma in the co-culture media (100 μL) was analyzed using the Human IFN-gamma ELISA Ready-SET-GO kit from eBioscience.

SMILES | CLint scaled at 1 µM [1] | hepatocyte CLint at 1 µM [1] | half-life at 1 µM [1] | Human Hepatocyte Remaining Percentage @ 120 min (pooled human hepatocytes) | IC50 [2] | EC50 [3]
CC(C)CN(CC(C)C)c1ccc(C2(C(=O)O)CCC2)cc1NC(=O)Nc1ccc(F)cc1F [Compound 16] | 0.108 L/h/kg | 0.7 µL/min/1e6 cells | 31.4 h | 101 | 1.5 nM | –
CC(C)CN(c1ccc(C2(C(=O)O)CCC2)cc1NC(=O)Nc1ccc(F)cc1F)C1CCOCC1 [Compound 25] | 0.234 L/h/kg | 1.5 µL/min/1e6 cells | 15 h | 89 | 0.6 nM | –
CC(C)CN(CC(C)C)c1ccc(C2(C(=O)O)CCCC2)cc1Nc1ccccc1 [Compound 48] | 0.12 L/h/kg | 0.8 µL/min/1e6 cells | 28.9 h | 105 | 8.4 nM | –
CCOc1ncc(Nc2cc(C3(C(=O)O)CCC3)ccc2N(CC(C)C)C2CCOCC2)cn1 [Compound 75] | 0.396 L/h/kg | 2.6 µL/min/1e6 cells | 8.9 h | 88 | 0.3 nM | –
CC(C)CN(CC(C)C)c1ncc(C2(C(=O)O)CCC2)cc1Nc1ccc(Cl)cc1 [Compound 84] | 0.342 L/h/kg | 2.2 µL/min/1e6 cells | 10.4 h | 80 | 0.4 nM | –
CC(C)CN(c1ccc(C2(C(=O)O)CCC2)cc1Nc1ccc(C#N)cn1)C1CCOCC1 [Compound 86] | 0.78 L/h/kg | 5.2 µL/min/1e6 cells | 4.47 h | 75 | 0.3 nM | –
CC(C)CN(c1ncc(C2(C(=O)O)CCC2)cc1Nc1ccc(C#N)cc1)C1CCOCC1 [Compound 91] | 0.198 L/h/kg | 1.3 µL/min/1e6 cells | 17.7 h | 92 | 0.3 nM | –
CC(C)CN(CC(C)C)c1ccc(C2(C(=O)O)CCC2)cc1Nc1ccc(Cl)cn1 [Compound 105] | 0.78 L/h/kg | 5.1 µL/min/1e6 cells | 4.58 h | 81 | 0.3 nM | –
CC(C)CN(CC(C)C)c1ncc(C2(C(=O)O)CCC2)cc1Nc1ccc(C#N)cn1 [Compound 106] | 1.08 L/h/kg | 7 µL/min/1e6 cells | 3.3 h | 69 | 0.4 nM | –
CC(C)CN(CC(C)C)c1ncc(C2(C(=O)O)CCC2)cc1Nc1ccc(Cl)cn1 [Compound 107] | 0.84 L/h/kg | 5.5 µL/min/1e6 cells | 4.2 h | 76 | 0.4 nM | –
CC(C)N(CC1CC1)c1ncc(C2(C(=O)O)CCC2)cc1Nc1ccc(C#N)cn1 [Compound 110] | 0.96 L/h/kg | 6.4 µL/min/1e6 cells | 3.6 h | 71 | 1 nM | –
CC(C)N(CC1CC1)c1ncc(C2(C(=O)O)CCC2)cc1Nc1ccc(Cl)cn1 [Compound 111] | 1.2 L/h/kg | 7.7 µL/min/1e6 cells | 2.98 h | 63 | 0.8 nM | –
CCN(c1ccc(C2(C(=O)O)CCC2)cc1Nc1ccc(Cl)cn1)C1CCOCC1 [Compound 115] | 0.558 L/h/kg | 3.6 µL/min/1e6 cells | 6.35 h | 83 | 0.1 nM | –
CCOc1ncc(Nc2cc(C3(C(=O)O)CCC3)ccc2N(CC)C2CCOCC2)cn1 [Compound 117] | 0.102 L/h/kg | 0.7 µL/min/1e6 cells | 35.4 h | 93 | 0.9 nM | –
CCN(c1ccc(C2(C(=O)O)CCC2)cc1Nc1ccc(C#N)cn1)C1CCOCC1 [Compound 118] | 0.51 L/h/kg | 3.3 µL/min/1e6 cells | 6.93 h | 85 | 0.2 nM | –
CCN(c1ncc(C2(C(=O)O)CCC2)cc1Nc1ccc(Cl)cc1)C1CCOCC1 [Compound 120] | 0.21 L/h/kg | 1.4 µL/min/1e6 cells | 17.1 h | 94 | 0.1 nM | 9.1 nM
CCN(c1ncc(C2(C(=O)O)CCC2)cc1Nc1ccc(Cl)cn1)C1CCOCC1 [Compound 123] | 0.222 L/h/kg | 1.4 µL/min/1e6 cells | 16.1 h | 100 | 0.3 nM | –
CCN(c1ncc(C2(C(=O)O)CCC2)cc1Nc1ccc(C#N)cc1)C1CCOCC1 [Compound 125] | 0.132 L/h/kg | 0.9 µL/min/1e6 cells | 26.6 h | 97 | 0.5 nM | –
CC(C)CN(CC(C)C)c1ccc(C(CC(=O)O)C(F)(F)F)cc1NC(=O)Nc1ccc(F)cc1F (stereo not drawn) [Control 1, 3-(3-(3-(2,4-difluorophenyl)ureido)-4-(diisobutylamino)phenyl)-4,4,4-trifluorobutanoic acid, reference compound] | 0.66 L/h/kg | 4.1 µL/min/1e6 cells | 5.6 h | 76 | 0.8 nM | –
